± gives the expanded uncertainty stated by the source.
Conditions: Gas, Oscillating disk viscometry

Structure (SMILES): CCN(CC)CC [triethylamine]
- viscosity (296.98 K, Amount density=4.2 mol/m3): 0.006418 ± 0.0003 mPa·s
- viscosity (297.59 K, Amount density=6.31 mol/m3): 0.006412 ± 0.0003 mPa·s
- viscosity (297.87 K, Amount density=8.75 mol/m3): 0.006427 ± 0.0003 mPa·s
- viscosity (297.97 K, Amount density=4.2 mol/m3): 0.006439 ± 0.0003 mPa·s
- viscosity (297.98 K, Amount density=4.99 mol/m3): 0.00644 ± 0.0003 mPa·s
- viscosity (298.33 K, Amount density=4.99 mol/m3): 0.006437 ± 0.0003 mPa·s
- viscosity (299.24 K, Amount density=7.52 mol/m3): 0.006446 ± 0.0003 mPa·s
- viscosity (299.36 K, Amount density=6.31 mol/m3): 0.006449 ± 0.0003 mPa·s
- viscosity (299.67 K, Amount density=2.2 mol/m3): 0.00649 ± 0.00031 mPa·s
- viscosity (299.85 K, Amount density=2.2 mol/m3): 0.006485 ± 0.00031 mPa·s
- viscosity (300.02 K, Amount density=3.13 mol/m3): 0.006488 ± 0.00031 mPa·s
- viscosity (300.11 K, Amount density=8.75 mol/m3): 0.00646 ± 0.0003 mPa·s
- viscosity (303.12 K, Amount density=3.13 mol/m3): 0.006548 ± 0.00031 mPa·s
- viscosity (310.02 K, Amount density=4.2 mol/m3): 0.006668 ± 0.00031 mPa·s
- viscosity (310.29 K, Amount density=6.31 mol/m3): 0.006654 ± 0.00031 mPa·s
- viscosity (311.78 K, Amount density=8.75 mol/m3): 0.006667 ± 0.00031 mPa·s
- viscosity (313.96 K, Amount density=2.2 mol/m3): 0.006764 ± 0.00031 mPa·s
- viscosity (314.61 K, Amount density=4.99 mol/m3): 0.00675 ± 0.00031 mPa·s
- viscosity (316.33 K, Amount density=3.13 mol/m3): 0.006815 ± 0.00031 mPa·s
- viscosity (324.05 K, Amount density=8.75 mol/m3): 0.006913 ± 0.00032 mPa·s
- viscosity (324.26 K, Amount density=3.13 mol/m3): 0.006981 ± 0.00032 mPa·s
- viscosity (324.9 K, Amount density=6.31 mol/m3): 0.006948 ± 0.00032 mPa·s
- viscosity (324.95 K, Amount density=4.2 mol/m3): 0.006971 ± 0.00032 mPa·s
- viscosity (325.84 K, Amount density=4.99 mol/m3): 0.00698 ± 0.00032 mPa·s
- viscosity (326.04 K, Amount density=7.52 mol/m3): 0.006979 ± 0.00032 mPa·s
- viscosity (326.63 K, Amount density=2.2 mol/m3): 0.007024 ± 0.00032 mPa·s
- viscosity (337.84 K, Amount density=6.31 mol/m3): 0.007205 ± 0.00032 mPa·s
- viscosity (338.12 K, Amount density=7.52 mol/m3): 0.007218 ± 0.00032 mPa·s
- viscosity (338.25 K, Amount density=4.99 mol/m3): 0.007233 ± 0.00032 mPa·s
- viscosity (338.31 K, Amount density=3.13 mol/m3): 0.007259 ± 0.00032 mPa·s
- viscosity (338.63 K, Amount density=4.2 mol/m3): 0.007245 ± 0.00032 mPa·s
- viscosity (338.92 K, Amount density=8.75 mol/m3): 0.007217 ± 0.00032 mPa·s
- viscosity (339.05 K, Amount density=2.2 mol/m3): 0.007275 ± 0.00032 mPa·s
- viscosity (352.32 K, Amount density=7.52 mol/m3): 0.007513 ± 0.00033 mPa·s
- viscosity (352.34 K, Amount density=8.75 mol/m3): 0.007487 ± 0.00033 mPa·s
- viscosity (352.41 K, Amount density=6.31 mol/m3): 0.007492 ± 0.00033 mPa·s
- viscosity (352.46 K, Amount density=4.99 mol/m3): 0.007529 ± 0.00033 mPa·s
- viscosity (352.5 K, Amount density=2.2 mol/m3): 0.007551 ± 0.00033 mPa·s
- viscosity (352.91 K, Amount density=3.13 mol/m3): 0.007557 ± 0.00033 mPa·s
- viscosity (353.3 K, Amount density=4.2 mol/m3): 0.007551 ± 0.00033 mPa·s
- viscosity (365.86 K, Amount density=4.2 mol/m3): 0.007803 ± 0.00034 mPa·s
- viscosity (366.42 K, Amount density=8.75 mol/m3): 0.007782 ± 0.00034 mPa·s
- viscosity (366.49 K, Amount density=3.13 mol/m3): 0.007839 ± 0.00034 mPa·s
- viscosity (366.6 K, Amount density=2.2 mol/m3): 0.007842 ± 0.00034 mPa·s
- viscosity (366.72 K, Amount density=7.52 mol/m3): 0.007801 ± 0.00034 mPa·s
- viscosity (366.77 K, Amount density=6.31 mol/m3): 0.007784 ± 0.00034 mPa·s
- viscosity (367.25 K, Amount density=4.99 mol/m3): 0.007831 ± 0.00034 mPa·s
- viscosity (380.54 K, Amount density=4.99 mol/m3): 0.008109 ± 0.00034 mPa·s
- viscosity (380.67 K, Amount density=3.13 mol/m3): 0.008129 ± 0.00034 mPa·s
- viscosity (381.06 K, Amount density=8.75 mol/m3): 0.008076 ± 0.00034 mPa·s
- viscosity (381.14 K, Amount density=2.2 mol/m3): 0.008137 ± 0.00034 mPa·s
- viscosity (381.83 K, Amount density=6.31 mol/m3): 0.008106 ± 0.00034 mPa·s
- viscosity (385.41 K, Amount density=4.2 mol/m3): 0.008217 ± 0.00035 mPa·s
- viscosity (385.75 K, Amount density=7.52 mol/m3): 0.008206 ± 0.00035 mPa·s
- viscosity (394.25 K, Amount density=4.2 mol/m3): 0.008388 ± 0.00035 mPa·s
- viscosity (394.49 K, Amount density=6.31 mol/m3): 0.00837 ± 0.00035 mPa·s
- viscosity (394.51 K, Amount density=4.99 mol/m3): 0.008386 ± 0.00035 mPa·s
- viscosity (394.56 K, Amount density=2.2 mol/m3): 0.008413 ± 0.00035 mPa·s
- viscosity (394.86 K, Amount density=7.52 mol/m3): 0.008384 ± 0.00035 mPa·s
- viscosity (394.95 K, Amount density=3.13 mol/m3): 0.008423 ± 0.00035 mPa·s
- viscosity (395.11 K, Amount density=8.75 mol/m3): 0.008369 ± 0.00035 mPa·s
- viscosity (408.35 K, Amount density=8.75 mol/m3): 0.00864 ± 0.00036 mPa·s
- viscosity (408.97 K, Amount density=6.31 mol/m3): 0.008662 ± 0.00036 mPa·s
- viscosity (409.2 K, Amount density=2.2 mol/m3): 0.008718 ± 0.00036 mPa·s
- viscosity (409.32 K, Amount density=4.99 mol/m3): 0.008707 ± 0.00036 mPa·s
- viscosity (409.67 K, Amount density=7.52 mol/m3): 0.00869 ± 0.00036 mPa·s
- viscosity (409.73 K, Amount density=4.2 mol/m3): 0.008711 ± 0.00036 mPa·s
- viscosity (412.99 K, Amount density=3.13 mol/m3): 0.008804 ± 0.00036 mPa·s
- viscosity (422.67 K, Amount density=8.75 mol/m3): 0.008939 ± 0.00036 mPa·s
- viscosity (422.79 K, Amount density=2.2 mol/m3): 0.008996 ± 0.00036 mPa·s
- viscosity (423.03 K, Amount density=7.52 mol/m3): 0.008963 ± 0.00036 mPa·s
- viscosity (423.25 K, Amount density=4.99 mol/m3): 0.008991 ± 0.00036 mPa·s
- viscosity (423.41 K, Amount density=3.13 mol/m3): 0.009012 ± 0.00036 mPa·s
- viscosity (423.92 K, Amount density=6.31 mol/m3): 0.008966 ± 0.00036 mPa·s
- viscosity (423.93 K, Amount density=4.2 mol/m3): 0.008988 ± 0.00036 mPa·s
- viscosity (436.97 K, Amount density=4.2 mol/m3): 0.009275 ± 0.00037 mPa·s
- viscosity (437.11 K, Amount density=6.31 mol/m3): 0.009249 ± 0.00037 mPa·s
- viscosity (437.42 K, Amount density=2.2 mol/m3): 0.009296 ± 0.00037 mPa·s
- viscosity (437.51 K, Amount density=3.13 mol/m3): 0.009315 ± 0.00037 mPa·s
- viscosity (437.62 K, Amount density=4.99 mol/m3): 0.009286 ± 0.00037 mPa·s
- viscosity (437.76 K, Amount density=8.75 mol/m3): 0.009255 ± 0.00037 mPa·s
- viscosity (437.87 K, Amount density=7.52 mol/m3): 0.009269 ± 0.00037 mPa·s
- viscosity (451.28 K, Amount density=4.99 mol/m3): 0.009572 ± 0.00038 mPa·s
- viscosity (451.45 K, Amount density=8.75 mol/m3): 0.009534 ± 0.00038 mPa·s
- viscosity (451.66 K, Amount density=6.31 mol/m3): 0.009554 ± 0.00038 mPa·s
- viscosity (451.72 K, Amount density=2.2 mol/m3): 0.009594 ± 0.00038 mPa·s
- viscosity (451.74 K, Amount density=3.13 mol/m3): 0.009599 ± 0.00038 mPa·s
- viscosity (451.76 K, Amount density=4.2 mol/m3): 0.009586 ± 0.00038 mPa·s
- viscosity (451.93 K, Amount density=7.52 mol/m3): 0.009558 ± 0.00038 mPa·s
- viscosity (465.92 K, Amount density=6.31 mol/m3): 0.009846 ± 0.00038 mPa·s
- viscosity (466.45 K, Amount density=4.99 mol/m3): 0.009879 ± 0.00039 mPa·s
- viscosity (466.58 K, Amount density=2.2 mol/m3): 0.009907 ± 0.00039 mPa·s
- viscosity (466.63 K, Amount density=8.75 mol/m3): 0.009851 ± 0.00038 mPa·s
- viscosity (466.71 K, Amount density=4.2 mol/m3): 0.009893 ± 0.00039 mPa·s
- viscosity (469.98 K, Amount density=3.13 mol/m3): 0.009985 ± 0.00039 mPa·s
- viscosity (471.39 K, Amount density=7.52 mol/m3): 0.009972 ± 0.00039 mPa·s
- viscosity (480.12 K, Amount density=8.75 mol/m3): 0.01013 ± 0.00039 mPa·s
- viscosity (480.36 K, Amount density=2.2 mol/m3): 0.01019 ± 0.00039 mPa·s
- viscosity (480.43 K, Amount density=4.99 mol/m3): 0.01017 ± 0.00039 mPa·s
- viscosity (480.7 K, Amount density=7.52 mol/m3): 0.01015 ± 0.00039 mPa·s
- viscosity (480.86 K, Amount density=3.13 mol/m3): 0.0102 ± 0.00039 mPa·s
- viscosity (481.09 K, Amount density=6.31 mol/m3): 0.01015 ± 0.00039 mPa·s
- viscosity (481.32 K, Amount density=4.2 mol/m3): 0.01019 ± 0.00039 mPa·s
- viscosity (495.17 K, Amount density=6.31 mol/m3): 0.01045 ± 0.0004 mPa·s
- viscosity (495.29 K, Amount density=4.99 mol/m3): 0.01047 ± 0.0004 mPa·s
- viscosity (495.31 K, Amount density=4.2 mol/m3): 0.01049 ± 0.0004 mPa·s
- viscosity (495.84 K, Amount density=7.52 mol/m3): 0.01046 ± 0.0004 mPa·s
- viscosity (496.21 K, Amount density=8.75 mol/m3): 0.01046 ± 0.0004 mPa·s
- viscosity (498.38 K, Amount density=3.13 mol/m3): 0.01057 ± 0.0004 mPa·s
- viscosity (498.45 K, Amount density=2.2 mol/m3): 0.01056 ± 0.0004 mPa·s
